Assay: TABLE 1
Description: Table printed on a drawing sheet, TABLE 1
The patent's description of the figure: FIGS. 1A, 1B, 1C, 2A, 2B, 2C, 3A, 3B AND 3C SHOW INTENSITY/RETENTION TIME CURVES FOR VARIOUS PRODUCTS.

Row | Compound | % intact after 6 h [%] | t1/2 [h]
1 | CC(C)[Si](F)(c1cccc(CCOC2CCCCO2)c1)C(C)C (racemic) [3e - F] | > 95 | > 100.0
2 | CC(C)[Si](F)(c1cccc(CCCOC2CCCCO2)c1)C(C)C (racemic) [3d - F] | > 95 | > 100.0
3 | CC(C)[Si](F)(c1ccc(CCCO)cc1)C(C)C [4c - F] | – | > 100.0

Source: US20090035215A1, “RADIOFLUORINATION” (priority 2006, published 2009)
